Test results: the supplement of paper PMC13380429
± gives the standard deviation of the averaged measurements.

Assays:
Conditions in all cases: 72 h
[1] = tested on: Vero E6; test: drug sensitivity score (DSS) for viability; higher = more toxic; extreme values may be limits of the assay
[2] = tested on: Caco-2; test: as above
[3] = tested on: HepG2; test: as above
[4] = tested on: Calu-3; test: as above
[5] = tested on: U2OS; test: as above
[6] = tested on: Vero E6; test: relative viability EC50 (midpoint between 100% and the lowest measured viability); higher = less toxic
[7] = tested on: Caco-2; test: as above
[8] = tested on: HepG2; test: as above
[9] = tested on: Calu-3; test: as above
[10] = tested on: U2OS; test: as above
[11] = tested on: Vero E6; test: cell viability relative to DMSO; higher = less toxic
[12] = tested on: Caco-2; test: as above
[13] = tested on: HepG2; test: as above
[14] = tested on: Calu-3; test: as above
[15] = tested on: U2OS; test: as above

SMILES | drug sensitivity score [1] | drug sensitivity score [2] | drug sensitivity score [3] | drug sensitivity score [4] | drug sensitivity score [5] | relative viability EC50 [6] | relative viability EC50 [7] | relative viability EC50 [8] | relative viability EC50 [9] | relative viability EC50 [10] | cell viability ([11]; 1 nM) | cell viability ([11]; 10 nM) | cell viability ([11]; 100 nM) | cell viability ([11]; 1000 nM) | cell viability ([11]; 10000 nM) | cell viability ([12]; 1 nM) | cell viability ([12]; 10 nM) | cell viability ([12]; 100 nM) | cell viability ([12]; 1000 nM) | cell viability ([12]; 10000 nM) | cell viability ([13]; 1 nM) | cell viability ([13]; 10 nM) | cell viability ([13]; 100 nM) | cell viability ([13]; 1000 nM) | cell viability ([13]; 10000 nM) | cell viability ([14]; 1 nM) | cell viability ([14]; 10 nM) | cell viability ([14]; 100 nM) | cell viability ([14]; 1000 nM) | cell viability ([14]; 10000 nM) | cell viability ([15]; 1 nM) | cell viability ([15]; 10 nM) | cell viability ([15]; 100 nM) | cell viability ([15]; 1000 nM) | cell viability ([15]; 10000 nM)
CC[C@H](C)[C@@H]1NC(=O)[C@H](Cc2ccc(OC)cc2)NC(=O)CCCSC[C@@H](C(=O)N2CCC[C@H]2C(=O)N[C@@H](CC(C)C)C(=O)NCC(N)=O)NC(=O)[C@H](CC(N)=O)NC(=O)[C@H](CCC(N)=O)NC1=O [carbetocin] | 0 | 0.3 | 0 | 0.6 | 0 | > 10 µM | > 10 µM | > 10 µM | > 10 µM | > 10 µM | 104% | 104% | 99.3% | 101% | 95.8% | 99.7% | 98.6% | 97.3% | 90.5% | 87.4% | 103% | 103% | 91.3% | 99.7% | 93.3% | 103% | 104% | 102% | 106% | 75.7% | 94.9% | 91.3% | 98.4% | 95.2% | 100%
C[N+](C)(C)CC(O)CC(=O)[O-] (stereo not given) [carnitine-(D/L)] | 0 | 0.7 | 2.2 | 0 | 0 | > 10 µM | > 10 µM | > 10 µM | > 10 µM | > 10 µM | 100% | 101% | 91% | 106% | 104% | 105% | 77.6% | 100% | 81.8% | 89.7% | 98.1% | 82.5% | 92.1% | 86.3% | 80.9% | 96.9% | 102% | 109% | 99.9% | 94.3% | 94.1% | 94.4% | 87.2% | 80.6% | 95.9%
O=C(O)COCCN1CCN(C(c2ccccc2)c2ccc(Cl)cc2)CC1 (stereo not given) [cetirizine] | 0 | 0 | 0 | 0 | 0 | > 10 µM | > 10 µM | > 10 µM | > 10 µM | > 10 µM | 93.7 ± 5.7% | 97.3 ± 1.6% | 88.5 ± 4.5% | 95.3 ± 2.4% | 100 ± 1.8% | 91 ± 0.14% | 81.8 ± 7.7% | 97.8 ± 6.4% | 88 ± 12% | 107 ± 5.2% | 100 ± 1.4% | 100 ± 1.1% | 101 ± 5.7% | 103 ± 3.5% | 102 ± 4.1% | 94.7 ± 5.4% | 105 ± 1.1% | 100.25 ± 0.071% | 95.8 ± 8.7% | 102 ± 2.5% | 95.5 ± 3.3% | 98.05 ± 0.071% | 96.2 ± 0.14% | 93.8 ± 4.5% | 102 ± 1.4%
C[C@@H]1C[C@H]2[C@@H]3C[C@H](F)C4=CC(=O)C=C[C@]4(C)[C@@]3(Cl)[C@@H](O)C[C@]2(C)[C@H]1C(=O)COC(=O)C(C)(C)C [clocortolone-pivalate] | 0 | 0 | 0 | 0 | 0 | > 10 µM | > 10 µM | > 10 µM | > 10 µM | > 10 µM | 101% | 90.6% | 99.6% | 95.4% | 110% | 90.6% | 99.2% | 91% | 100% | 112% | 98.8% | 93.6% | 99.1% | 103% | 108% | 92.9% | 88.2% | 102% | 96.2% | 97.3% | 95.7% | 93% | 90.1% | 90.7% | 93.4%
CN(C)[C@@H](CCOc1cccc2ccccc12)c1ccccc1 [dapoxetine] | 0.1 | 0 | 0 | 1.3 | 0 | > 10 µM | > 10 µM | > 10 µM | > 10 µM | > 10 µM | 97.5% | 101% | 98.7% | 98.8% | 88.6% | 98.5% | 96% | 101% | 102% | 89.6% | 94.1% | 104% | 97.1% | 95.7% | 89% | 103% | 104% | 105% | 91.7% | 81.3% | 103% | 103% | 103% | 98.2% | 89.3%
COc1ccc2c(c1)CN(C)CC2c1ccc(Cl)c(Cl)c1 (stereo not given) [diclofensine] | 0 | 0.6 | 0 | 0 | 0 | > 10 µM | > 10 µM | > 10 µM | > 10 µM | > 10 µM | 96% | 99.3% | 94.5% | 95.7% | 91.1% | 96.6% | 94% | 86% | 95.6% | 83.5% | 101% | 98.8% | 95.9% | 103% | 97.2% | 103% | 106% | 107% | 101% | 87.9% | 99.3% | 103% | 93.3% | 100% | 93.2%
C[C@H]1c2cccc(O)c2C(=O)C2=C(O)[C@]3(O)C(=O)C(C(N)=O)=C(O)[C@@H](N(C)C)[C@@H]3[C@@H](O)[C@@H]21 [doxycycline] | 0 | 0.05 ± 0.071 | 0 | 0 | 0 | > 10 µM | > 10 µM | > 10 µM | > 10 µM | > 10 µM | 101 ± 2.9% | 95.8 ± 4.3% | 101 ± 4.5% | 97.8 ± 9.4% | 100 ± 1.8% | 90.2 ± 11% | 96.8 ± 0.85% | 92.6 ± 3.1% | 90.1 ± 5.4% | 88 ± 0.92% | 100 ± 2.8% | 94.3 ± 5.3% | 98.7 ± 9.5% | 108 ± 21% | 94.8 ± 4.3% | 95.8 ± 5.4% | 108 ± 3.1% | 107 ± 3.3% | 104 ± 2.9% | 99.8 ± 8% | 96.5 ± 1.9% | 98.8 ± 1.1% | 96.2 ± 2% | 101 ± 2.3% | 98.6 ± 4%
N[C@@]1(C(=O)O)CC[C@H]2[C@H](C(=O)O)[C@H]21 [eglumetad] | 0 | 0 | 0 | 0 | 0 | > 10 µM | > 10 µM | > 10 µM | > 10 µM | > 10 µM | 99% | 99% | 94.9% | 100% | 96.6% | 107% | 104% | 93.8% | 102% | 97.2% | 113% | 92.5% | 102% | 97.6% | 116% | 95.7% | 102% | 97.3% | 93.2% | 104% | 101% | 101% | 97.3% | 96.6% | 96%
CSc1ccc(C(=O)/C=C/c2cc(C)c(OC(C)(C)C(=O)O)c(C)c2)cc1 [elafibranor] | 0 | 1 | 0 | 0 | 0 | > 10 µM | > 10 µM | > 10 µM | > 10 µM | > 10 µM | 90.8% | 97% | 89.5% | 91.1% | 98.5% | 99.5% | 92.5% | 103% | 90.5% | 84.6% | 101% | 108% | 93.5% | 99.1% | 96.3% | 101% | 97% | 100% | 108% | 114% | 99.7% | 94% | 97.7% | 98.1% | 94.3%
Cc1cc(O)c2c(c1)C(=O)c1cc(O)cc(O)c1C2=O [emodin] | 0 | 0 | 0 | 0 | 0 | > 10 µM | > 10 µM | > 10 µM | > 10 µM | > 10 µM | 103% | 95% | 97.1% | 100% | 106% | 95.4% | 91% | 92.8% | 93.9% | 97% | 105% | 96.7% | 105% | 98.5% | 106% | 93.6% | 104% | 95% | 94.2% | 102% | 94.2% | 103% | 93.8% | 101% | 103%
COc1cc(C)nc(-n2nc(C)cc2OC)n1 [epirizole] | 0 | 0 | 0 | 0 | 0 | > 10 µM | > 10 µM | > 10 µM | > 10 µM | > 10 µM | 112% | 99.3% | 110% | 105% | 94.9% | 83.5% | 92.7% | 82.3% | 97.4% | 89% | 103% | 96.7% | 105% | 94% | 97.8% | 91.9% | 92.2% | 88.3% | 97.3% | 86% | 95.1% | 101% | 94.8% | 99.8% | 97%
C[C@@H](O)[C@H]1C(=O)N2C(C(=O)O)=C(S[C@@H]3CN[C@H](C(=O)Nc4cccc(C(=O)O)c4)C3)[C@H](C)[C@H]12 [ertapenem] | 0 | 2.7 | 0 | 0 | 0 | > 10 µM | > 10 µM | > 10 µM | > 10 µM | > 10 µM | 106% | 98.3% | 106% | 100% | 103% | 101% | 114% | 84.3% | 96.3% | 85.9% | 90.9% | 97.4% | 93.2% | 103% | 91.9% | 98.2% | 99.7% | 94.4% | 89.7% | 97.8% | 94.7% | 98.9% | 96.8% | 101% | 99.5%
CN1CC[C@@]2(C)c3cc(O)ccc3N(C)[C@@H]12 [eseroline-(-)] | 0 | 1.9 | 0.2 | 0.1 | 0 | > 10 µM | > 10 µM | > 10 µM | > 10 µM | > 10 µM | 96.3% | 97.9% | 96.1% | 94.2% | 96% | 103% | 97.9% | 105% | 89.6% | 77.5% | 98.2% | 103% | 110% | 109% | 83.7% | 101% | 101% | 99.1% | 112% | 84.6% | 106% | 105% | 99.1% | 101% | 96.4%
